{
  "source": "patent US7763708B2",
  "about": "“Methods and compositions for modulating C5-a-mediated inflammatory responses” (Institute for Protein Science Co., Ltd., priority 2004, dated 2010)",
  "key": {"C5a [1]": {"molecular_target": "T1, C5a (Homo sapiens, UniProt P01031)", "T1 sequence (P01031 678-751 limits assumed)": "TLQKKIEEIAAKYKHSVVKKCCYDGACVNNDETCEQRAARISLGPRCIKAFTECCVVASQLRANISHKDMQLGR", "experiment": "Intracellular Ca++ mobilization in neutrophils triggered by C5a (calcium imaging)", "assay_type": "cell-based", "method": "Neutrophils were isolated from fresh human blood with 0.2% EDTA as an anticoagulant. Whole blood was collected from a healthy volunteer (a collaborator of this study) via vein puncture. A 2.4 ml aliquot of blood was then layered onto 2 ml Mono-Poly Resolving Medium (Dainihon Seiyaku, Tokyo, Japan) in a centrifuge tube and centrifuged at 400 g for 20 min at room temperature. The polymorphonuclear leukocytes (neutrophils) were then harvested and the cell fraction was washed with Hanks' balanced salt solution (HBSS).\nThe isolated neutrophils were loaded with 2 μM Fura-2/AM (Molecular Probes, Eugene, Oreg.) mixed with 0.02% Pluronic F-127 (Molecular Probes) and 0.2% DMSO in HBSS for 40 min at 37° C. The suspension was agitated to prevent sedimentation. After loading, the cells were washed with HBSS twice and suspended in HBSS containing 0.3% BSA (HBSS/BSA). Approximately 1×10^6 cells in 900 μl HBSS/BSA were added to a poly-L-lysine-coated 35 mm Petri dish and allowed to attach to the bottom of the dish for 30 min. Changes in intracellular calcium concentrations in response to C5a or a mixture of peptides (C-peptides and C5a) were determined by monitoring the ratio of fluorescence light emission at 5I0 nm as a result of excitation at 340 and 380 nm at 37° C. using an ARGUS HiSCA calcium imaging system (Hamamatsu Photonics, Hamamatsu, Japan). The mixture of peptides and C5a was incubated in an Eppendorf tube on ice for 30 min in the HBSS solution and then applied to the cells after a 2 min baseline recording.\nThe effect of C-peptides on C5a function was analyzed by measuring Ca^++ mobilization using an ARUGUS HiSCA calcium imaging system. Administration of 0.7 nM recombinant human C5a (RhC5a) induced a transient increase in the level of intracellular Ca^++ of human neutrophils (FIG. 3a). The level of this activation was about 50% of the maximum achieved with higher concentrations of C5a. A mixture of C-peptide and C5a was incubated in an Eppendorf tube on ice for 30 min in the HBSS solution and then applied to the cells. […]"}, "[2]": {"test_system": "TGW human neuroblastoma cells bearing C5aR", "experiment": "Patch clamp measurement of inward ion current pulses induced by PL37-MAP", "assay_type": "cell-based", "settings": "500 nM PL37-MAP", "method": "The measurements were carried out on TGW human neuroblastoma cells bearing C5aR. Cells were voltage-clamped at room temperature at a holding potential of −70 mV using a whole cell clamp configuration. The instruments used for electrophysiology were as follows: an Axopatch 200-A patch clamp amplifier, a Digidata-1200 data acquisition system and pCLAMP 6.02 software from Axon Instruments Inc., (Foster City, Calif.). The head stage of the amplifier was fitted to an MHW-3 hydraulic manipulator manufactured by Narishige Inc. (Tokyo, Japan); and the cells were visualized using an Olympus IMT-2 invert microscope. Data acquisition and analysis were performed using an IBM compatible personal computer. Patch electrodes (OD=1.5 mm, thin wall, Garner Glass Co., Claremont, Calif.) were pulled with a PP-83 puller and polished with an MF-83 microforge (Narishige Inc). The resistance of patch electrodes was 8-10 MΩ. The solutions used were as follows: an extracellular solution (10 mM Hepes, 140 mM NaCl, 5 mM KCI, 2 mM CaCl2, 2 mM MgCl2, 10 mM glucose, pH=7.34) and an intracellular pipette solution (10 mM Hepes, 110 mM KCl, 15 mM NaCl, 0.1 mM CaCl2, 2 mM MgCl2, 1 mM EGTA, pH 7.25). […]\nInward calcium current pulses detected by a patch clamp assay were evoked when TGW cells were exposed to 500 nM PL37-MAP (FIG. 2a). […]"}, "[3]": {"test_system": "Rat Lethal Shock Model (C5a-mediated)", "experiment": "Rat lethal shock induced by anti-Crry antibody following LPS priming", "assay_type": "in vivo", "method": "Administration of anti-rat Crry mAb (5I2) (Takizawa et al., J. Immunol. 152:3032, 1994) induces lethal shock in rats primed with a trace amount of lipopolysaccharide (LPS) (Matsuo et al., J. Exp. Med. 180:1619, 1994; Mizuno et al., J. Immunol. 162:5477, 1999). With this model, all rats sensitized with 0.05 mg/kg of LPS died within 30 min of injection of mAb 512. Male Wistar rats weighing about 250 g were purchased from Chubu Kagaku Shizai (Nagoya, Japan) and were allowed free access to food and water. Each rat was injected with 0.05 mg/kg of LPS, prepared from a phenol extraction of Salmonella typhosa (Sigma Chemical Co., St. Louis, Mo.) in 250 μl saline. Then, 0.75 mg/kg of 5I2 was administered 20 h later. Ten minutes before the injection of 5I2, saline or C-peptides in saline were injected. All injections were intravenously administered through the tail vein. Animal experiments were carried out according to Nagoya City University Guideline for the Care and Use of Experimental Animals and approved by the Nagoya City University Graduate School of Medical Sciences Animal Care Committee.\nAdministration of 0.75 mg/kg anti-rat Crry monoclonal antibody (Takizawa et al., J. Immunol. 152:3032, 1994) induces rapid lethal shock in rats primed with 0.05 mg/kg of LPS 20 h earlier (Matsuo et al., J. Exp. Med. 180:1619, 1994; Mizuno et al., J. Immunol. 162:5477, 1999). […] In order to investigate the inhibitory effect of the C-peptides in this model, we injected rats with saline (for the control) or C-peptides in 250 μl of saline 10 min before the 5I2 injection. All rats injected with saline died within 30 min (Table 1). However, all rats injected with 4 mg/kg of Pep-A survived. […] Some of the surviving rats stopped breathing briefly in the first 1 or 2 min after injection of 5I2, but were soon breathing again and about 20-40 min later began moving."}, "C5a [4]": {"molecular_target": "T1, C5a", "experiment": "Surface plasmon resonance (Biacore) binding of C-peptides to immobilized C5a", "design": "Complement anaphylatoxin C5a is a 74-amino acid peptide generated from the fifth component of complement (C5)", "settings": "PBS, 25° C., 10 μl/min, EA-blocked cell subtracted", "method": "(§1) Binding interactions between PL37 or C5a with C-peptides were evaluated using surface plasmon resonance (SPR) technology with the Biacore system. PL37 and C5a were covalently immobilized on the CM5 sensor chip by amine coupling methods using N-ethyl-N-(dimethylaminopropyl)carbodiimide/N-hydroxysuccinimide (EDC/NHS) according to the manufacturer's instructions. We activated the surface of the CM5 sensor chip with EDC/NHS for 20 min before injection with PL37-MAP (200 μg/ml in 10 mM sodium carbonate buffer, pH 8.5, over flow cell 2) or C5a (100 μg/ml in 10 mM acetate buffer, pH 5, over flow cell 3). Afterwards, excess NHS was deactivated for 20 min with 1 M ethanolamine hydrochloride (EA), pH 8.5. The reference flow cell was activated with EDC/NHS, and blocked with EA. Coupling was performed at a flow rate of 5 μl/min at 25° C. in PBS. Analyte (30 μl of C-peptide A or B) was injected at 10 μl/min at 25° C. in PBS. Binding interactions were determined by passing samples simultaneously over both the EA-blocked cell and the flow cell with immobilized PL37 or C5a so as to obtain units of resonance response (RU) by subtraction of the background using Biacore software (BIA evaluation).\nBinding of C-peptides to C5a was also examined. C5a was covalently coupled to a CM5 sensor chip resulting in a net increase of 5,770 RU. […]"}, "PL37-MAP": {"molecular_target": "PL37-MAP (Homo sapiens, UniProt P01031)", "experiment": "Surface plasmon resonance (Biacore) binding of C-peptides to immobilized PL37-MAP", "settings": "PBS, 25° C., 10 μl/min, EA-blocked cell subtracted", "method": "as §1\nThe Biacore instrument which uses SPR technology measures association and dissociation in real time of an unlabeled analyte with an immobilized ligand. […]"}, "skin reaction of rats": {"test_system": "skin reaction of rats", "experiment": "Skin reaction of rats: Evans Blue exudation after intradermal 5I2 (anti-Crry mAb)", "assay_type": "in vivo, rat", "method": "Within one exemplary embodiment illustrating construction of useful C5a-modulatory peptide analogs and mimetics from a direct C5a complement peptide (or reference C5a-modulatory peptide sequence), an acetylated derivative of Pep-A (A-Pep-A) was constructed and tested for use within the methods and compositions of the invention. A-Pep-A is a peptide with the same sequence as that of Pep-A with acetylated alanine at the amino-terminal amino acid. Effect of A-Pep-A was tested on the lethal shock of mice induced by intravenous administration of CAWS (Candida albicans water soluble extract). […] ICR mice were injected with 4 mg/kg of A-Pep-A intraperitonally (i.p.) or intravenously (i.v.) 10 min before i.v. challenge with […] 100 μg CAWS. […] Effect of A-Pep-A was also evaluated on the skin reaction of rats. […]"}, "ICR mice": {"test_system": "ICR mice", "experiment": "Lethal shock of mice induced by intravenous CAWS (Candida albicans water soluble extract)", "assay_type": "in vivo, mouse", "method": "Within one exemplary embodiment illustrating construction of useful C5a-modulatory peptide analogs and mimetics from a direct C5a complement peptide (or reference C5a-modulatory peptide sequence), an acetylated derivative of Pep-A (A-Pep-A) was constructed and tested for use within the methods and compositions of the invention. A-Pep-A is a peptide with the same sequence as that of Pep-A with acetylated alanine at the amino-terminal amino acid. Effect of A-Pep-A was tested on the lethal shock of mice induced by intravenous administration of CAWS (Candida albicans water soluble extract). […] ICR mice were injected with 4 mg/kg of A-Pep-A intraperitonally (i.p.) or intravenously (i.v.) 10 min before i.v. challenge with […] 100 μg CAWS. […] Effect of A-Pep-A was also evaluated on the skin reaction of rats. As an indicator dye of vascular exudation, rats were i.v. injected with 0.5 ml of Evans Blue (8 mg/ml in saline) 30 min before intradermal (i.d.) injection of 5 μg 512 (anti-Crry monoclonal antibody) together with Pep-A, A-Pep-A of saline control)."}, "[5]": {"settings": "4 mg/kg i.v. 10 min before anti-Crry mAb"}},
  "note": "Several values for one entry are separate records, joined by “and”; a condition that tells them apart may be missing. Equal values may be shown once. Entries after “also recorded” stand apart in the source; their conditions may differ. Ends that are not written are not given here.",
  "data": [
    {"substance": "ASTAPARAGLPRLPKFF [Pep-B]", "values": [
      {"measurement": "Inhibition of C5a-triggered Ca++ mobilization", "setting": "C5a [1]; 0.7 nM C5a, 70 nM C-peptide, human neutrophils", "result": "failed to cause inhibition; also recorded: no inhibition"},
      {"measurement": "Inhibition of C5a-triggered Ca++ mobilization", "setting": "C5a [1]; 0.7 nM C5a, 700 nM C-peptide, human neutrophils", "result": "failed to cause inhibition; also recorded: no inhibition"},
      {"measurement": "Inhibition of inward ion current pulse evoked by PL37-MAP", "setting": "[2]; 50 μM C-peptide", "result": "did not have any effect; also recorded: did not block"},
      {"measurement": "Survival rate (%)", "setting": "[3]; [5]", "result": 0, "unit": "%"},
      {"measurement": "Surviving/total number of rats", "setting": "[3]; [5]", "result": "died and 0/4"},
      {"measurement": "Binding to C5a-coupled flow cell", "setting": "C5a [4]", "result": "did not"},
      {"measurement": "Binding to PL37-MAP-coupled flow cell", "setting": "PL37-MAP", "result": "did not"}
    ]},
    {"substance": "A-Pep-A: Peptide with the same sequence as Pep-A with acetylated alanine at the amino-terminal amino acid (Ac-ASGAPAPGPAGPLRPMF)", "values": [
      {"measurement": "Inhibition of C5a-triggered Ca++ mobilization", "setting": "C5a [1]; 1 nM C5a, 350 nM peptide, human neutrophils (FIG. 5)", "result": "completely inhibited; also recorded: much stronger effect than Pep-A"},
      {"measurement": "Blue spots at 2 h", "setting": "skin reaction of rats; 5I2 2.5 μg + peptide 40 μg i.d., spots measured from reverse side of removed skin", "result": "3 +/− 1"},
      {"measurement": "Inhibition of dye exudation / skin inflammation", "setting": "skin reaction of rats; summary of Table 3", "result": "suppressed the dye exudation"},
      {"measurement": "Dead/total", "setting": "ICR mice; 4 mg/kg i.p., CAWS 100 μg/mouse", "result": "3/3"},
      {"measurement": "Dead/total", "setting": "ICR mice; 4 mg/kg i.p., CAWS 200 μg/mouse", "result": "3/3"},
      {"measurement": "Dead/total", "setting": "ICR mice; 4 mg/kg i.v., CAWS 100 μg/mouse", "result": "rescued half of mice"},
      {"measurement": "Dead/total", "setting": "ICR mice; 4 mg/kg i.v., CAWS 100 μg/mouse, listed as A-PepA", "result": "2/4"},
      {"measurement": "Dead/total", "setting": "ICR mice; 4 mg/kg i.v., CAWS 200 μg/mouse", "result": "3/3"}
    ]},
    {"substance": "PL37-MAP: PL37 (C5a fragment aa 37-53, RAARISLGPRCIKAFTE, SEQ ID NO: 2) in multiple antigenic peptide form (also: multiple antigenic peptide form on lysine core) [reference compound]", "values": [
      {"measurement": "Amplitude of induced inward current pulses", "setting": "[2]", "result": 500, "unit": "pA"}
    ]},
    {"substance": "ASGAPAPGPAGPLRPMF [Pep-A, ASGAPAPGPAGPLRPMF]", "values": [
      {"measurement": "Time in which peptide had been degraded in vivo", "setting": "[3]; rat, inferred from loss of effect at 30 min pre-dosing", "result": "≤ 30", "unit": "min"},
      {"measurement": "Harmful / side effects of the peptide in rats", "setting": "[3]; rats injected with Pep-A (LPS sensitized, without anti-Crry mAb)", "result": "survived with no harmful effect; also recorded: without any noticeable deleterious side effects"}
    ]}
  ]
}
